The values below come from PMC2831066, “The Alzheimer's Disease-Associated Amyloid β-Protein Is an Antimicrobial Peptide” (PLoS ONE, 2010).

≈ marks a conversion by molar mass, not a printed value. Read-outs that look alike come from different tables or passages of the source. No end group written: not given here. Some results are limits rather than exact numbers.

The test system of one data set is Listeria monocytogenes. Type of data set: cell-based. Here is the method:
(§1) Bacteria were cultured aerobically in Mueller-Hinton broth (MHB), Brain and Heart Infusion broth (BHIB), or BHIB supplemented with 1% lysed horse blood and plated on Tryptone Soy Agar (TSA) plates containing 5% defibrinated sheep blood. […] Culture conditions for each organism are included in Table S1. Organisms were subcultured for 2 hrs to generate mid-logarithmic growth cultures for use as inoculates in experiments. Media reagents were obtained from Becton, Dickinson and Company (Sparks, MD).
(§2) Colonies from agar were transferred by sterile loop to growth media and incubated for 2 hrs at 37°C to achieve a McFarland density of 0.5. Bacteria inoculum cell densities were normalized to 5×10^5 cells/ml immediately before use photometrically and subsequently confirmed by colony count. Inoculum of C. albicans contained a cell density of 2.5×10^3 CFU/ml.
(§3) Bulk powdered peptides were first dissolved in 30% trifluoroethanol (TFE) at 1 mg/ml. Five hundred microliter aliquots of the stock solutions were lyophilized and stored under nitrogen at −20°C. Stock solutions at 2 mg/ml were prepared the day of experimentation from the peptide films by solubilizing a second time in either water or 20% TFE. Aβ stocks prepared in water were sonicated and insoluble peptide aggregates pelleted by centrifugation (10 min×16,000 g). Peptide concentrations in stock solutions were determined immediately before use by bicinchoninic acid (BCA) protein assay. […] For MIC experiments, peptides were serially diluted into growth media. For other experiments stocks were diluted into required working buffers. Experiments included controls for peptide buffer vehicle alone.
(§4) Peptide antimicrobial activity was determined as minimal inhibitory concentration (MIC). Experiments identified peptide MIC by broth microdilution susceptibility test in conjunction with CFU and alamar blue assays. Inoculum containing mid-logarithmic phase cells was dispensed into the wells of polypropylene 96-well plates (Fisher, Pittsburgh, PA) containing seven two-fold dilutions of test peptide in growth media. Plates were then incubated aerobically overnight (12 to 18 hrs) at 37°C. Peptide MIC was taken as the lowest concentration able reduce cell growth by CFU and alamar blue assays by at least two-fold and which correlated with the visible loss of a growth button on the bottom of microtiter wells. Experiments were repeated a minimum of three times for each organism, and tests included at least three replicates for each assay condition. Experiments included control serial dilutions of buffer vehicle alone.
(§5) Serial dilutions of incubants were prepared and streaked onto the surface of agar. The agar plates were then incubated overnight at 37°C and colonies forming units counted.
(§6) Microbial growth was determined by following the reduction of the synthetic metabolic substrate resazurin (alamar blue) to a fluorescent product by respiratory enzymes in living cells. Alamar blue assay is used in high throughput screens for antimicrobial agents and is available commercially in kit form from Invitrogen. Microbial growth in experiments was assayed with alamar blue kits according to the manufacturer's instructions. […] Fluorescence signal was measured at excitation of 530 nm and emission at 590 nm.

The test system of another data set is Streptococcus salivarius. Type of data set: cell-based. On the procedure: as §1, §2, §3, §4, §5, §6
A further data set has as its system Streptococcus mitis. Type of data set: cell-based. On the procedure:
as §1, §2, §3, §4, §5, §6

For a further data set, the system named is Staphylococcus aureus. Type of data set: cell-based. Here is the method: as §1, §2, §3, §4, §5, §6
For a further data set, the system named is Streptococcus pneumoniae. Type of data set: cell-based. On the procedure:
as §1, §2, §3, §4, §5, §6

In data set [1] the test system is Staphylococcus epidermidis. Format: cell-based. On the procedure:
as §1, §2, §3, §4, §5, §6

A further data set deals with Streptococcus agalactiae. Format: cell-based. Here is the method: as §1, §2, §3, §4, §5, §6
The subject of the next data set is Escherichia coli. Format: cell-based. Here is the method:
as §1, §2, §3, §4, §5, §6

The test system of another data set is Streptococcus pyogenes. Type of data set: cell-based. On the procedure: as §1, §2, §3, §4, §5, §6
A further data set deals with Enterococcus faecalis. Type of data set: cell-based. Here is the method: as §1, §2, §3, §4, §5, §6
The subject of another data set is Pseudomonas aeruginosa. Type of data set: cell-based. On the procedure:
as §1, §2, §3, §4, §5, §6

The test system of a further data set is Candida albicans. Type of data set: cell-based. Here is the method:
as §1, §2, §3, §4, §5, §6

The conditions of data set [2]: clinical trial in AD patients; cited from earlier work.
Data set [3] concerns panel of clinically relevant organisms. Nature of the data set: MIC against panel of clinically relevant organisms, recombinant versus synthetic peptide. Particulars: data not shown. Format: cell-based. On the procedure: Aβ and LL-37 peptides were prepared and purified by Dr. James I. Elliott at Yale University (New Haven, CT) using solid-phase peptide synthesis. Scrambled LL-37 peptide was from AnaSpec (San Jose, CA). […] Findings for recombinant and SPPS prepared peptides were equivalent in all experiments.
as §4

The subject of a further data set is E. faecalis. Nature of the data set: Growth curves of E. faecalis with peptide, CFU count. Type of data set: cell-based, Enterococcus faecalis. To be noted: 25 µg/ml peptide; growth with time by CFU; six experiments, four replicates (Figure 1A). Here is the method:
as §5

Consider “DAEFGHDSGFEVRHQKLVFFAEDVGSNKGAIIGLMVGGVVIA [roAβ42]”, for which the MIC in the data set on Listeria monocytogenes was 6.25 mg/L; in the data set on Streptococcus salivarius it was greater than 50 mg/L; in the data set on Streptococcus mitis it was greater than 50 mg/L; against Staphylococcus aureus, 12.5 mg/L; in the data set on Streptococcus pneumoniae, 6.25 mg/L; in [1] it was 3.13 mg/L. In addition, the MIC is greater than 50 mg/L in the data set with Streptococcus agalactiae; 3.13 mg/L in the data set with Escherichia coli; greater than 50 mg/L against Streptococcus pyogenes; 3.13 mg/L against Enterococcus faecalis; greater than 50 mg/L in the data set with Pseudomonas aeruginosa; 0.78 mg/L in the data set on Candida albicans (pH 7).

As to `C[C@@H](C(=O)O)c1ccc(-c2ccccc2)c(F)c1` [tarenflurbil], the “Rates of infection in patients receiving the drug” value in data set [2] is “significantly increased rates of infection”.

With “recombinant Aβ42: Recombinant human Aβ42 purchased from rPeptide”, in data set [3], the “Antimicrobial activity compared with synthetic Aβ42” value is on record as “Equivalent findings”.

Consider `CC[C@H](C)[C@H](NC(=O)[C@H](CCCCN)NC(=O)[C@H](CCC(=O)O)NC(=O)[C@H](CCCCN)NC(=O)[C@H](CO)NC(=O)[C@H](CCCCN)NC(=O)[C@H](CCCNC(=N)N)NC(=O)[C@H](Cc1ccccc1)NC(=O)[C@H](Cc1ccccc1)NC(=O)[C@H](CC(=O)O)NC(=O)CNC(=O)[C@H](CC(C)C)NC(=O)[C@@H](N)CC(C)C)C(=O)NCC(=O)N[C@@H](CCCCN)C(=O)N[C@@H](CCC(=O)O)C(=O)N[C@@H](Cc1ccccc1)C(=O)N[C@@H](CCCCN)C(=O)N[C@@H](CCCNC(=N)N)C(=O)N[C@H](C(=O)N[C@H](C(=O)N[C@@H](CCC(N)=O)C(=O)N[C@@H](CCCNC(=N)N)C(=O)N[C@H](C(=O)N[C@@H](CCCCN)C(=O)N[C@@H](CC(=O)O)C(=O)N[C@@H](Cc1ccccc1)C(=O)N[C@@H](CC(C)C)C(=O)N[C@@H](CCCNC(=N)N)C(=O)N[C@@H](CC(N)=O)C(=O)N[C@@H](CC(C)C)C(=O)N[C@H](C(=O)N1CCC[C@H]1C(=O)N[C@@H](CCCNC(=N)N)C(=O)N[C@H](C(=O)N[C@@H](CCC(=O)O)C(=O)N[C@@H](CO)C(=O)O)[C@@H](C)O)C(C)C)[C@@H](C)CC)C(C)C)[C@@H](C)CC` [LL-37], for which the “Action on E. faecalis growth (bacteriostatic or bactericidal)” value in the data set on E. faecalis is “potent bactericidal activity”. For the same compound, the MIC came out at 25 mg/L (≈ 5.56 µM) against Listeria monocytogenes (Listeria monocytogenes ATCC 19112, inoculum 5×10^5 cells/ml, mid-logarithmic phase, overnight (12 to 18 hrs) 37°C, visual inspection confirmed by alamar blue and CFU, repeated at least three times); 50 mg/L (≈ 11.1 µM) against Streptococcus salivarius (Streptococcus salivarius ATCC 13419, inoculum 5×10^5 cells/ml, mid-logarithmic phase, overnight (12 to 18 hrs) 37°C, visual inspection confirmed by alamar blue and CFU, repeated at least three times); 6.25 mg/L (≈ 1.39 µM) with Streptococcus mitis (Streptococcus mitis ATCC 6249, inoculum 5×10^5 cells/ml, mid-logarithmic phase, overnight (12 to 18 hrs) 37°C, visual inspection confirmed by alamar blue and CFU, repeated at least three times); 6.25 mg/L (≈ 1.39 µM) against Staphylococcus aureus (Staphylococcus aureus ATCC 25923, inoculum 5×10^5 cells/ml, mid-logarithmic phase, overnight (12 to 18 hrs) 37°C, visual inspection confirmed by alamar blue and CFU, repeated at least three times); 1.56 mg/L (≈ 0.347 µM) against Streptococcus pneumoniae (Streptococcus pneumoniae ATCC 49619, inoculum 5×10^5 cells/ml, mid-logarithmic phase, overnight (12 to 18 hrs) 37°C, visual inspection confirmed by alamar blue and CFU, repeated at least three times); 25 mg/L (≈ 5.56 µM) in data set [1] (Staphylococcus epidermidis ATCC 12228, inoculum 5×10^5 cells/ml, mid-logarithmic phase, overnight (12 to 18 hrs) 37°C, visual inspection confirmed by alamar blue and CFU, repeated at least three times). Moreover, the MIC with Streptococcus agalactiae (Streptococcus agalactiae ATCC 12386, inoculum 5×10^5 cells/ml, mid-logarithmic phase, overnight (12 to 18 hrs) 37°C, visual inspection confirmed by alamar blue and CFU, repeated at least three times) amounted to 12.5 mg/L (≈ 2.78 µM); in the data set with Escherichia coli (Escherichia coli ATCC 25922, inoculum 5×10^5 cells/ml, mid-logarithmic phase, overnight (12 to 18 hrs) 37°C, visual inspection confirmed by alamar blue and CFU, repeated at least three times) it was 1.56 mg/L (≈ 0.347 µM); in the data set on Streptococcus pyogenes (Streptococcus pyogenes ATCC 19615, inoculum 5×10^5 cells/ml, mid-logarithmic phase, overnight (12 to 18 hrs) 37°C, visual inspection confirmed by alamar blue and CFU, repeated at least three times), 6.25 mg/L (≈ 1.39 µM); in the data set with Enterococcus faecalis (Enterococcus faecalis ATCC 29212, inoculum 5×10^5 cells/ml, mid-logarithmic phase, overnight (12 to 18 hrs) 37°C, visual inspection confirmed by alamar blue and CFU, repeated at least three times), 6.25 mg/L (≈ 1.39 µM); against Pseudomonas aeruginosa (Pseudomonas aeruginosa ATCC 27853, inoculum 5×10^5 cells/ml, mid-logarithmic phase, overnight (12 to 18 hrs) 37°C, visual inspection confirmed by alamar blue and CFU, repeated at least three times), 6.25 mg/L (≈ 1.39 µM); against Candida albicans (Candida albicans ATCC 10231, RPMI-1640 with 2% glucose, MOPS pH 7.0, inoculum 2.5×10^3 CFU/ml, mid-logarithmic phase, overnight (12 to 18 hrs) 37°C, visual inspection confirmed by alamar blue and CFU, repeated at least three times) it was 6.25 mg/L (≈ 1.39 µM).

As to “AIVVGGVMLGIIAGKNSGVDEAFFVLKQHHVEYGSDHRFEAD [reAβ42, Aβ42-1]”, the MIC in the data set with Listeria monocytogenes was greater than 50 mg/L; against Streptococcus salivarius, greater than 50 mg/L; in the data set on Streptococcus mitis, greater than 50 mg/L; with Staphylococcus aureus it was greater than 50 mg/L; in the data set with Streptococcus pneumoniae it was 50 mg/L; in [1] it was greater than 50 mg/L. The MIC is greater than 50 mg/L in the data set on Streptococcus agalactiae; greater than 50 mg/L against Escherichia coli; greater than 50 mg/L against Streptococcus pyogenes; 50 mg/L in the data set with Enterococcus faecalis; greater than 50 mg/L against Pseudomonas aeruginosa; greater than 25 mg/L against Candida albicans (pH 7).
